Measurements reported in paper PMC8699473, “An Easily Expandable Multi-Drug LC-MS Assay for the Simultaneous Quantification of 57 Oral Antitumor Drugs in Human Plasma” (Cancers, 2021).

Key:
[1] = Short-term stability in spiked pooled human plasma (bench-top, 4 °C, 56 °C)
[2] = design: method as in supplement references [1-55] as printed per drug; settings: minimum steady-state blood plasma concentration after multiple dose administration; ref supplement references [1-55] per drug; cited from earlier work

Compound | Short-time stability (1h, 56°C) Accuracy [%] ([1]; validation standard 2xLLOV) | Short-time stability (24h, 4°C, without daylight) Accuracy [%] ([1]; validation standard 2xLLOV) | Short-time stability (24h, RT, with daylight) Accuracy [%] ([1]; validation standard 2xLLOV) | Short-time stability (24h, RT, without daylight) Accuracy [%] ([1]; validation standard 2xLLOV) | Short-time stability (1h, 56°C) Accuracy [%] ([1]; validation standard LLOV) | Short-time stability (24h, 4°C, without daylight) Accuracy [%] ([1]; validation standard LLOV) | Short-time stability (24h, RT, with daylight) Accuracy [%] ([1]; validation standard LLOV) | Short-time stability (24h, RT, without daylight) Accuracy [%] ([1]; validation standard LLOV) | Short-time stability (1h, 56°C) Accuracy [%] ([1]; validation standard MOV) | Short-time stability (24h, 4°C, without daylight) Accuracy [%] ([1]; validation standard MOV) | Short-time stability (24h, RT, with daylight) Accuracy [%] ([1]; validation standard MOV) | Short-time stability (24h, RT, without daylight) Accuracy [%] ([1]; validation standard MOV) | Short-time stability (1h, 56°C) Accuracy [%] ([1]; validation standard ULOV) | Short-time stability (24h, 4°C, without daylight) Accuracy [%] ([1]; validation standard ULOV) | Short-time stability (24h, RT, with daylight) Accuracy [%] ([1]; validation standard ULOV) | Short-time stability (24h, RT, without daylight) Accuracy [%] ([1]; validation standard ULOV) | cmin [2] | concentrations in short-term stability investigations ([1]; 24 h, room temperature, with or without light)
CS(=O)(=O)CCNCc1ccc(-c2ccc3ncnc(Nc4ccc(OCc5cccc(F)c5)c(Cl)c4)c3c2)o1 [Lapatinib] | 19.2% | 96.4% | 46.9% | 53.0% | -24.8% | 92.5% | 5.2% | 14.4% | 46.1% | 97.9% | 93.5% | 109.4% | 42.5% | 94.3% | 100.7% | 112.4% | 780 ng/mL | –
O=C(Nc1cnn2ccc(N3CCC[C@@H]3c3cc(F)ccc3F)nc12)N1CC[C@H](O)C1 [Larotrectinib] | 58.9% | 104.3% | 109.3% | 102.4% | 44.4% | 107.8% | 115.6% | 100.1% | 58.2% | 99.9% | 106.3% | 110.8% | 50.9% | 98.3% | 105.3% | 104.5% | 5.14 ng/mL | –
Nc1cccc2c1CN(C1CCC(=O)NC1=O)C2=O (centres unmarked) [Lenalidomide] | 39.6% | 107.4% | 54.9% | 49.6% | – | 83.0% | 81.5% | – | 20.6% | 97.8% | 58.7% | 54.1% | 18.5% | 90.4% | 51.9% | 50.9% | 13 ng/mL | –
CCOc1cc2ncc(C#N)c(Nc3ccc(OCc4ccccn4)c(Cl)c3)c2cc1NC(=O)/C=C/CN(C)C [Neratinib] | -7.9% | 79.9% | 23.2% | 25.4% | -88.6% | 65.9% | -37.5% | -39.1% | 26.0% | 89.7% | 37.9% | 39.2% | 21.9% | 81.3% | 28.5% | 31.5% | 52.6 ng/mL | –
Cc1cn(-c2cc(NC(=O)c3ccc(C)c(Nc4nccc(-c5cccnc5)n4)c3)cc(C(F)(F)F)c2)cn1 [Nilotinib] | 47.8% | 101.2% | 107.8% | 108.6% | 28.5% | 96.7% | 94.9% | 96.7% | 52.5% | 100.3% | 110.2% | 114.5% | 44.6% | 97.1% | 108.0% | 110.3% | 1165 ng/mL | –
COC(=O)c1ccc2c(c1)NC(=O)/C2=C(\Nc1ccc(N(C)C(=O)CN2CCN(C)CC2)cc1)c1ccccc1 [Nintedanib] | 48.8% | 103.5% | 102.5% | 105.4% | 56.0% | 96.7% | 99.4% | 96.1% | 51.2% | 100.1% | 104.3% | 103.0% | 43.9% | 88.8% | 105.8% | 102.1% | 13.1 ng/mL | –
NC(=O)c1cccc2cn(-c3ccc([C@@H]4CCCNC4)cc3)nc12 [Niraparib] | 53.4% | 96.9% | 95.2% | 93.8% | 46.8% | 93.8% | 92.3% | 91.9% | 51.1% | 100.2% | 97.6% | 96.5% | 43.8% | 92.7% | 95.8% | 94.0% | 649 ng/mL | –
O=C(c1cc(Cc2n[nH]c(=O)c3ccccc23)ccc1F)N1CCN(C(=O)C2CC2)CC1 [Olaparib] | 64.1% | 101.8% | 91.3% | 90.8% | 80.6% | 110.7% | 108.3% | 110.6% | 49.4% | 98.6% | 89.4% | 88.9% | 42.9% | 99.7% | 99.0% | 94.2% | 1570 ng/mL | –
C=CC(=O)Nc1cc(Nc2nccc(-c3cn(C)c4ccccc34)n2)c(OC)cc1N(C)CCN(C)C [Osimertinib] | 29.9% | 95.8% | 61.4% | 61.7% | 28.7% | 85.8% | 62.0% | 60.5% | 30.1% | 96.3% | 75.7% | 72.0% | 26.0% | 86.7% | 67.4% | 63.9% | 166 ng/mL | 60.5–75.7%
